Assay [1] has as its target Human recombinant FAP (Homo sapiens, UniProt Q12884). Kind of assay: FRET-based FAP protease activity assay. Format: biochemical. Also noted: purchased R&D systems 3715-SE. The note with it: pIC50 Category (Activity), 37° C.
Assay [2] addresses T1, FAP-expressing human WI-38 fibroblasts (Homo sapiens, UniProt Q12884).
T1 construct: FAP-expressing human WI-38 fibroblasts (ECACC) were cultured in EMEM; host or cells: WI-38 human fibroblasts
Kind of assay: Competitive FACS binding assay. As to the method: Cells were analyzed in an Attune NxT flow cytometer. […] […].
Cells were analyzed in an Attune NxT flow cytometer. […]

Setting [3] is: FRET-based FAP protease activity assay, recombinant human FAP.

Molecules are shown by their SMILES. pIC50: −log10 of the molar value. Numbered stars: 1 amine (or outer) side, 2 acyl side, 3 side chain; on linkers, the order of the positions; unused ones are H or OH. Bridge positions count the residues as written; N and C are the ends. Square brackets hold non-standard residues; d marks the D form. Peptide text beside a SMILES is read from it. * marks the point of attachment. X32 = O=C(O)CN1CCN(CC(=O)O)CCN(CC(=O)NCc2cc(C[*:1])cc(C[*:2])c2)CCN(CC(=O)O)CC1; X12 = O=C(O)CN1CCN(CC(=O)O)CCN(CC(=O)NCCCOCCOCCOCCCN*)CCN(CC(=O)O)CC1; DOTA = O=C(O)CN1CCN(CC(=O)O)CCN(CC(=O)*)CCN(CC(=O)O)CC1; Pro(trans-4-F) = O=C(O)[C@@H]1C[C@@H](F)CN1; 2Nal = N[C@@H](Cc1ccc2ccccc2c1)C(=O)O; mXylylene = c1cc(C[*:1])cc(C[*:2])c1; NMeF = CN[C@@H](Cc1ccccc1)C(=O)O; Suc = O=C(CCC(=O)[*:2])[*:1]; Hexanoyl = CCCCCC(=O)*; AEEA = NCCOCCOCC(=O)O

T1 sequence (Q12884 whole entry): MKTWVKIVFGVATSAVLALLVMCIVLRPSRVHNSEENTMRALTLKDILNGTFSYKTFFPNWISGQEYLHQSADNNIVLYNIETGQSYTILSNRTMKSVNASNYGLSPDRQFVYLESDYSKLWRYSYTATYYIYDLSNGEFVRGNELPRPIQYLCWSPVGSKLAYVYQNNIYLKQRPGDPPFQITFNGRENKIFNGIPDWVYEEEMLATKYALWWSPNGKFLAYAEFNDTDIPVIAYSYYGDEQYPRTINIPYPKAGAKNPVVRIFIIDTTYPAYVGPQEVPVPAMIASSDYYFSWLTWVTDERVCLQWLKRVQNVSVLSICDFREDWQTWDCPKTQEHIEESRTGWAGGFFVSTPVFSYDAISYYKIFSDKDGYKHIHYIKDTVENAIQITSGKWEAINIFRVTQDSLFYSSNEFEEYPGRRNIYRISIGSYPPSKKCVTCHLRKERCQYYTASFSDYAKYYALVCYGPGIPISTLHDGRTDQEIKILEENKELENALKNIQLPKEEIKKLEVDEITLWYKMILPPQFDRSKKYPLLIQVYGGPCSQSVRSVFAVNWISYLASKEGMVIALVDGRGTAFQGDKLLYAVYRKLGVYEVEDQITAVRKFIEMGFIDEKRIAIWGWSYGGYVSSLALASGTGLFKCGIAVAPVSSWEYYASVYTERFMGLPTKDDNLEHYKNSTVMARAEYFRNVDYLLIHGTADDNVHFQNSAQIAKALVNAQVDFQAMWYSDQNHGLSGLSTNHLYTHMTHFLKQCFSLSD
Chain of Human recombinant FAP (Q12884 whole entry): as above

In the case of `C[C@@H](O)[C@@H]1NC(=O)[C@@H]2CCCN2C(=O)[C@@H]2CCCN2C(=O)[C@@H](NC(=O)COCCOCCNC(=O)CN2CCN(CC(=O)O)CCN(CC(=O)O)CCN(CC(=O)O)CC2)CSCc2cccc(c2)CSC[C@@H](C(=O)N[C@@H](CC(=O)O)C(=O)N[C@@H](Cc2c[nH]cn2)C(=O)N(C)[C@@H](Cc2ccccc2)C(=O)N[C@@H](CCCNC(=N)N)C(=O)N[C@@H](CC(=O)O)C(N)=O)NC(=O)[C@H](Cc2ccccc2)NC(=O)[C@H](CCC(=O)O)NC1=O` [3BP-3267, DOTA-O2Oc-[Cys(3MeBn)-Pro-Pro-Thr-Glu-Phe-Cys]-Asp-His-Nmf-Arg-Asp-NH2] ({DOTA-AEEA}-CPPTEFCDH[NMeF]RD-NH2; linker 1-7 via mXylylene), the pIC50 in assay [1] (setting [3]) and in assay [2] was 6.10 to 7.00 each time.
Consider `C=CCOC(=O)N[C@H]1CSCc2cc(CSCCNC(=O)CN3CCN(CC(=O)O)CCN(CC(=O)O)CCN(CC(=O)O)CC3)cc(c2)CSC[C@@H](C(=O)O)NC(=O)[C@H](Cc2ccccc2)NC(=O)[C@H](CCC(N)=O)NC(=O)[C@H]([C@@H](C)O)NC(=O)[C@@H]2CCCN2C(=O)[C@@H]2CCCN2C1=O` [3BP-3915, Alloc-[Cys(tMeBn(DOTA-AET))-Pro-Pro-Thr-Gln-Phe-Cys]-OH], for which the pIC50 in assay [1] (FRET-peptide substrate) and in assay [2] was 7.10 to 8.00 each time.
As to `CCCCCC(=O)N[C@H]1CSCc2cc(CSCCNC(=O)CCC(=O)NCCCOCCOCCOCCCNC(=O)CCC(=O)NCCCOCCOCCOCCCNC(=O)CCC(=O)NCCCOCCOCCOCCCNC(=O)CCC(=O)NCCCOCCOCCOCCCNC(=O)CCCC[C@@H]3SC[C@@H]4NC(=O)N[C@@H]43)cc(c2)CSC[C@@H](C(=O)O)NC(=O)[C@H](Cc2ccccc2)NC(=O)[C@H](CCC(N)=O)NC(=O)[C@H]([C@@H](C)O)NC(=O)[C@@H]2CCCN2C(=O)[C@@H]2CCCN2C1=O` [3BP-4170, Hex-[Cys-(tMeBn(Bio-Ttds-Ttds-Ttds-Ttds-AET))-Pro-Pro-Thr-Gln-Phe-Cys]-OH], the pIC50 in assay [1] (FRET-peptide substrate) and in assay [2] was 7.10 to 8.00 throughout.
As for `CCCCCC(=O)N[C@H]1CSCc2cc(CNC(=O)CN3CCN(CC(=O)O)CCN(CC(=O)O)CCN(CC(=O)O)CC3)cc(c2)CSC[C@@H](C(=O)N[C@@H](CC(=O)O)C(N)=O)NC(=O)[C@H](Cc2ccccc2)NC(=O)[C@H](CCC(N)=O)NC(=O)[C@H]([C@@H](C)O)NC(=O)[C@@H]2CCCN2C(=O)[C@@H]2CCCN2C1=O` [3BP-3556, Hex-[Cys(tMeBn(DOTA-NH))-Pro-Pro-Thr-Gln-Phe-Cys]-Asp-NH2] (Hexanoyl-CPPTQFCD-NH2; linker 1-7 via X32), the pIC50 in assay [1] (setting [3]) and in assay [2] was 7.10 to 8.00 each time.
On to `CCCCCC(=O)N[C@H]1CSCc2cccc(c2)CSC[C@@H](C(N)=O)NC(=O)[C@H](Cc2ccccc2)NC(=O)[C@H](CCC(=O)O)NC(=O)[C@H]([C@@H](C)O)NC(=O)[C@@H]2C[C@@H](F)CN2C(=O)[C@@H]2CCCN2C1=O` [3BP-3352, Hex-[Cys(3MeBn)-Pro-4Tfp-Thr-Glu-Phe-Cys]-NH2] (Hexanoyl-CP[Pro(trans-4-F)]TEFC-NH2; linker 1-7 via mXylylene), for which the pIC50 (in general, the negative decadic logarithm of the IC50, by convention in mol/L) in assay [1] (setting [3]) is 7.10 to 8.00; in assay [2] it was 6.10 to 7.00.
Regarding `CCCCCC(=O)N[C@H]1CSCc2cccc(c2)CSC[C@@H](C(N)=O)NC(=O)[C@H](Cc2ccc3ccccc3c2)NC(=O)[C@H](CCC(=O)O)NC(=O)[C@H]([C@@H](C)O)NC(=O)[C@@H]2CCCN2C(=O)[C@@H]2CCCN2C1=O` [3BP-3362, Hex-[Cys(3MeBn)-Pro-Pro-Thr-Glu-2Ni-Cys]-NH2] (Hexanoyl-CPPTE[2Nal]C-NH2; linker 1-7 via mXylylene), the pIC50 in assay [1] (setting [3]) and in assay [2] was 6.10 to 7.00 in each case.
Regarding `CC(C)C[C@H](NC(=O)CCC(=O)NCCCOCCOCCOCCCNC(=O)CN1CCN(CC(=O)O)CCN(CC(=O)O)CCN(CC(=O)O)CC1)C(=O)N[C@H]1CSCc2cccc(c2)CSC[C@@H](C(=O)N[C@@H](CC(=O)O)C(=O)N[C@@H](Cc2c[nH]cn2)C(=O)N[C@@H](Cc2ccccc2)C(=O)N[C@@H](CCCNC(=N)N)C(=O)N[C@@H](CC(=O)O)C(N)=O)NC(=O)[C@H](Cc2ccccc2)NC(=O)[C@H](CCC(=O)O)NC(=O)[C@H]([C@@H](C)O)NC(=O)[C@@H]2CCCN2C(=O)[C@@H]2CCCN2C1=O` [3BP-3172, DOTA-Ttds-Leu-[Cys(3MeBn)-Pro-Pro-Thr-Glu-Phe-Cys]-Asp-His-Phe-Arg-Asp-NH2] ({X12-Suc}-LCPPTEFCDHFRD-NH2; linker 2-8 via mXylylene), the pIC50 in assay [1] (setting [3]) and in assay [2] was greater than 8.00 throughout.
Turning to `CCCCCC(=O)N[C@H]1CSCc2cc(CSCCNC(=O)CCOCCOCCOCCOCCOCCOCCNC(=O)CCc3ccc(O)c(CN(CCN(CC(=O)O)Cc4cc(CCC(=O)O)ccc4O)CC(=O)O)c3)cc(c2)CSC[C@@H](C(=O)O)NC(=O)[C@H](Cc2ccccc2)NC(=O)[C@H](CCC(N)=O)NC(=O)[C@H]([C@@H](C)O)NC(=O)[C@@H]2CCCN2C(=O)[C@@H]2CCCN2C1=O` [3BP-4383, Hex-[Cys(tMeBn(HBED-PEG6-AET))-Pro-Pro-Thr-Gln-Phe-Cys]-OH], the pIC50 in assay [1] (FRET-peptide substrate) and in assay [2] was 7.10 to 8.00 each time.

For the origin of these results see patent US20230212549A1, “COMPOUNDS COMPRISING A […] LIGAND AND USE THEREOF” (priority 2021, published 2023).
